The source of these data is ChEMBL document CHEMBL1201862, “PubChem BioAssay data set” (2004).

Molecules are shown by their SMILES.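 Briefly, cells in 96-well plates were exposed to five compound concentrations for 48 h, and endpoints were estimated by linear interpolation. The concentration for 50% growth inhibition is given as GI50.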 The source made the active and inactive calls. Rule as the data show it: active = GI50 up to about 1.1 µM and inactive = higher. Where only a bound is given, the exact number is not on record here.

Some test systems named below: 786-0; A549; CCRF-CEM; COLO 205; EKVX; HOP-62; KM12; LOX IMVI; MOLT-4; NCI-H226; NCI-H23; NCI-H460; OVCAR-3; OVCAR-5; SF-295; SK-MEL-2; UO-31; DU-145; MDA-MB-435.
What all share (test): NCI-60 cell line screen, 48 h

As for `Clc1cc2nsnc2c(Cl)n1`, the GI50 was 16.9 µM (inactive) in the test with 786-0; 50 µM (inactive) in the test with A549; 6.03 µM (inactive) in the test with CCRF-CEM; 15.3 µM (inactive) with COLO 205; > 100 µM (inactive) in the test on EKVX; > 100 µM (inactive) in the test with HOP-62. In addition, the GI50 is 47.2 µM (inactive) with KM12; 33 µM (inactive) in the test with LOX IMVI; 14.2 µM (inactive) in the test with MOLT-4; 20.6 µM (inactive) in the test with NCI-H226; 19.1 µM (inactive) with NCI-H23; 38.5 µM (inactive) in the test on NCI-H460. Further, the GI50 in the test with OVCAR-3 was 17.9 µM (inactive); in the test with OVCAR-5, 43 µM (inactive); in the test with SF-295 it was 41.5 µM (inactive); in the test on SK-MEL-2, 17.2 µM (inactive); with UO-31, 20.6 µM (inactive).
`COc1ccc(N(CC(=O)O)S(=O)(=O)c2ccccc2)cc1`: the GI50 in the test on 786-0, in the test with A549, in the test on CCRF-CEM, in the test on COLO 205, in the test on EKVX and in the test with KM12 was > 100 µM (inactive) each time. Moreover, the GI50 in the test with LOX IMVI, with MOLT-4, in the test on NCI-H226, in the test with NCI-H23, with NCI-H460 and in the test on OVCAR-3 was > 100 µM (inactive) each time. For the same compound, the GI50 in the test with OVCAR-5, with SF-295, in the test with SK-MEL-2 and in the test on UO-31 was > 100 µM (inactive) in each case.
As to `C=CCCC1(O)C(O)C(CO)O[C@H](O[C@@]2(CO)OC(CO)C(O)C2O)C1O` (some centres undefined), the GI50 in the test on 786-0, in the test on A549, in the test on CCRF-CEM, with COLO 205, in the test on DU-145 and with EKVX was > 100 µM (inactive) throughout. The GI50 in the test with HOP-62, with KM12, in the test on LOX IMVI, in the test with MDA-MB-435, in the test on MOLT-4 and in the test with NCI-H226 was > 100 µM (inactive) throughout. In addition, the GI50 in the test on NCI-H23 was > 100 µM (inactive); in the test with NCI-H460 it was > 100 µM (inactive); in the test with OVCAR-5, > 100 µM (inactive); in the test with SF-295, > 100 µM (inactive); in the test with SK-MEL-2 it was > 10 µM (inactive).
As to `Cc1cc(N(CCC#N)CCC#N)ccc1/C=C(\NC(=O)/C=C/c1ccccc1)C(=O)Nc1ccccc1Cl`, the GI50 in the test on 786-0, in the test with A549, in the test with CCRF-CEM, in the test on COLO 205, in the test with EKVX and with KM12 was > 100 µM (inactive) throughout. The GI50 in the test on LOX IMVI, in the test with MOLT-4, in the test with NCI-H226, in the test with NCI-H23, with NCI-H460 and with OVCAR-3 was > 100 µM (inactive) in each case. In addition, the GI50 with OVCAR-5 is > 100 µM (inactive); with SF-295, 92 µM (inactive); in the test on SK-MEL-2, > 100 µM (inactive); in the test on UO-31, > 100 µM (inactive).
Regarding `OCCN1CCN(CCO)Cc2ccccc2OCCOc2ccccc2C1`, the GI50 in the test with 786-0, in the test with A549, with CCRF-CEM, in the test on COLO 205, in the test with EKVX and in the test on HOP-62 was > 100 µM (inactive) in each case. Further, the GI50 was > 100 µM (inactive) in the test on KM12; 29.8 µM (inactive) with LOX IMVI; > 100 µM (inactive) with MOLT-4; > 100 µM (inactive) in the test on NCI-H226; > 100 µM (inactive) with NCI-H23; > 100 µM (inactive) in the test on NCI-H460. Also, the GI50 in the test on OVCAR-3, in the test on OVCAR-5, in the test with SK-MEL-2 and in the test on UO-31 was > 100 µM (inactive) in each case.
For `O=c1c2ccccc2ncn1COCc1ccccc1`, the GI50 with 786-0, in the test on A549, with CCRF-CEM, in the test with COLO 205, in the test with DU-145 and in the test with EKVX was > 100 µM (inactive) each time. Further, the GI50 in the test on KM12, with LOX IMVI, in the test with MDA-MB-435, in the test with MOLT-4, with NCI-H226 and in the test on OVCAR-3 was > 100 µM (inactive) each time. Besides, the GI50 in the test with OVCAR-5 was > 100 µM (inactive); in the test on SF-295 it was > 100 µM (inactive); in the test with SK-MEL-2, > 100 µM (inactive); with UO-31, 77.3 µM (inactive).
`CC12CC3CC(C1)CC(N=[N+]=[N-])(C3)C2`: the GI50 in the test with 786-0, in the test on A549, with CCRF-CEM, in the test on COLO 205, in the test on EKVX and with HOP-62 was > 100 µM (inactive) in each case. Besides, the GI50 in the test on KM12, in the test with LOX IMVI, with MOLT-4, in the test with NCI-H226, with NCI-H23 and in the test with NCI-H460 was > 100 µM (inactive) in each case. Also, the GI50 in the test on OVCAR-3, with OVCAR-5, in the test on SF-295, with SK-MEL-2 and in the test on UO-31 was > 100 µM (inactive) in each case.
As for `COc1ccc(C(=O)C(C(=O)C(=O)NC2C3CC4CC(C3)CC2C4)c2ccc(OC)cc2)cc1` (centres undefined), the GI50 in the test on 786-0, with A549, in the test with CCRF-CEM, in the test with COLO 205, with EKVX and with HOP-62 was > 100 µM (inactive) throughout. Moreover, the GI50 in the test on KM12, in the test on LOX IMVI, in the test with MOLT-4, with NCI-H226, in the test with NCI-H23 and with NCI-H460 was > 100 µM (inactive) in each case. The GI50 in the test on OVCAR-3, with OVCAR-5, in the test with SF-295, in the test on SK-MEL-2 and with UO-31 was > 100 µM (inactive) in each case.
Take `O=c1cc(N2CCCC2)[nH]c(=O)n1-c1ccccc1`: the GI50 in the test on 786-0, in the test on A549, with CCRF-CEM, in the test with COLO 205, with DU-145 and in the test on EKVX was > 100 µM (inactive) in each case. The GI50 with HOP-62, in the test with KM12, in the test on LOX IMVI, with MDA-MB-435, with MOLT-4 and with NCI-H226 was > 100 µM (inactive) in each case. For the same compound, the GI50 in the test with NCI-H23, in the test with NCI-H460, with OVCAR-5, in the test on SF-295 and in the test with SK-MEL-2 was > 100 µM (inactive) each time.
As for `Oc1cn(-c2ccc(Cl)cc2)nc1-c1nnc(-c2ccccc2)o1`, the GI50 is 0.118 µM (active) in the test with A549; 1.87 µM (inactive) in the test on COLO 205; 2.99 µM (inactive) in the test on DU-145; 1.16 µM (inactive) in the test on EKVX; 0.132 µM (active) in the test on HOP-62; 0.0847 µM (active) in the test on KM12. Besides, the GI50 in the test on MDA-MB-435 is 0.152 µM (active); with MOLT-4, 0.193 µM (active); in the test with NCI-H226, 0.931 µM (active); with NCI-H23, 0.155 µM (active); in the test with NCI-H460 it was 0.236 µM (active); with OVCAR-3, 0.404 µM (active). Besides, the GI50 in the test on OVCAR-5 was 1.58 µM (inactive); in the test on SF-295 it was 0.102 µM (active); in the test on SK-MEL-2 it was 16.9 µM (inactive); in the test on UO-31, 0.726 µM (active).
Regarding `COC(=O)c1sc(=O)n(-c2ccccc2)c1SCc1ccccc1`, the GI50 with 786-0, in the test on A549, with CCRF-CEM, in the test on COLO 205, in the test with EKVX and in the test on HOP-62 was > 100 µM (inactive) throughout. For the same compound, the GI50 in the test with KM12, in the test on LOX IMVI, with MOLT-4, with NCI-H226, in the test on NCI-H23 and in the test on NCI-H460 was > 100 µM (inactive) in each case. The GI50 in the test with OVCAR-3, in the test with OVCAR-5, in the test on SF-295, in the test on SK-MEL-2 and in the test on UO-31 was > 100 µM (inactive) in each case.
With `COc1ccc(C(c2ccc(C(C)C)cc(=O)c2O)c2ccc3cccnc3c2O)cc1` (centres undefined), the GI50 is 1.63 µM (inactive) in the test with 786-0; 0.328 µM (active) in the test with A549; 0.604 µM (active) with CCRF-CEM; 1.05 µM (active) in the test with COLO 205; 1.27 µM (inactive) in the test on EKVX; 0.387 µM (active) in the test with HOP-62. For the same compound, the GI50 with KM12 is 1.45 µM (inactive); with LOX IMVI, 0.499 µM (active); with MOLT-4 it was 0.558 µM (active); in the test with NCI-H226, 0.991 µM (active); with NCI-H23, 0.349 µM (active); in the test on NCI-H460, 0.297 µM (active). In addition, the GI50 is 1.24 µM (inactive) in the test on OVCAR-3; 1.58 µM (inactive) with OVCAR-5; 0.337 µM (active) in the test on SF-295; 2.02 µM (inactive) in the test on SK-MEL-2; 0.421 µM (active) in the test with UO-31.
